Patent publication EP1377579B1 (Aventis Pharmaceuticals Inc., priority 2000, dated 2002)
Where a name gives a salt, the structure may show the parent alone. Read-outs that look alike come from different tables or passages of the source.

Legend:
MDA-MB-435 = test: In vitro proliferation assay (MTT), MDA-MB-435; type: cell-based, human; settings: value (SD, n) where given, read-out: MB-435 Breast (IC50 µM)
Summary of the method: (§1)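 MTT viability, 3 d compound treatment; seeding 1000–2500 cells/well, overnight attachment; formazan in DMSO, A570; IC50 fitted from raw absorbance.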

cdk4/cyclin D1 = cdk4/cyclin D1 (Homo sapiens, UniProt P11802); test: Cyclin-dependent kinase assay, cdk4/cyclin D1; type: biochemical; settings: cyclin D1/cdk4; GST-pRb substrate, 10 µM ATP
cdk4/cyclin D1, sequence (P11802 whole entry): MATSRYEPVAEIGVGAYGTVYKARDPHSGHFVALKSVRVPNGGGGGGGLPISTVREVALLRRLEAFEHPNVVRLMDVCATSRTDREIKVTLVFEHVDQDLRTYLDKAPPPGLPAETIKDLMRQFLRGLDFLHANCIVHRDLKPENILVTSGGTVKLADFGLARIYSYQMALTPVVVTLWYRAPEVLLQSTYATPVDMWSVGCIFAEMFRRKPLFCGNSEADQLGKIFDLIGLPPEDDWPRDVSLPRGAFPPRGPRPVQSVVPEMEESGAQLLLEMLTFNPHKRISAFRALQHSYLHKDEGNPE
cdk4/cyclin D1, sequence (P24385 whole entry partner): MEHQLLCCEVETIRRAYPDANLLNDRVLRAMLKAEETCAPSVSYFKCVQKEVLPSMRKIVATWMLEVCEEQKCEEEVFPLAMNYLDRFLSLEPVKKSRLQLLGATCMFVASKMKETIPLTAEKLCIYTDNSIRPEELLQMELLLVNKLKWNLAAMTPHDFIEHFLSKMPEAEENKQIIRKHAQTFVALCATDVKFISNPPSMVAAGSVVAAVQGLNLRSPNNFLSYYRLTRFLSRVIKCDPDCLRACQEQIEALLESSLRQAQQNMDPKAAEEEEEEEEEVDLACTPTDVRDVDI

cdk2/cyclin E = cdk2/cyclin E (Homo sapiens, UniProt P24941); test: Cyclin-dependent kinase assay, cdk2/cyclin E; settings: CDK2 IC50, nM, GST-pRb substrate, 10 µM ATP
cdk1/cyclin B = cdk1/cyclin B (Homo sapiens, UniProt P06493); test: Cyclin-dependent kinase assay, cdk1/cyclin B; settings: CDK1 IC50, nM, Histone H1, 10 µM ATP
cdk1/cyclin B, sequence (P06493 whole entry): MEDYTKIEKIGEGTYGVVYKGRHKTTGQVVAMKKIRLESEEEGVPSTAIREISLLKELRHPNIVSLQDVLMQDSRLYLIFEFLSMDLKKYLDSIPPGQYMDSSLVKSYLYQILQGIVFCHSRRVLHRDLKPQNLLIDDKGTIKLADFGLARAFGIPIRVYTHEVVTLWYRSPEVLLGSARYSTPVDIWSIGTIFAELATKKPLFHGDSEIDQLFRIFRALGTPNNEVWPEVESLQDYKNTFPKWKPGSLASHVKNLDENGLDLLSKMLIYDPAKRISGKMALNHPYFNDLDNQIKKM
cdk1/cyclin B, sequence (P14635 whole entry partner): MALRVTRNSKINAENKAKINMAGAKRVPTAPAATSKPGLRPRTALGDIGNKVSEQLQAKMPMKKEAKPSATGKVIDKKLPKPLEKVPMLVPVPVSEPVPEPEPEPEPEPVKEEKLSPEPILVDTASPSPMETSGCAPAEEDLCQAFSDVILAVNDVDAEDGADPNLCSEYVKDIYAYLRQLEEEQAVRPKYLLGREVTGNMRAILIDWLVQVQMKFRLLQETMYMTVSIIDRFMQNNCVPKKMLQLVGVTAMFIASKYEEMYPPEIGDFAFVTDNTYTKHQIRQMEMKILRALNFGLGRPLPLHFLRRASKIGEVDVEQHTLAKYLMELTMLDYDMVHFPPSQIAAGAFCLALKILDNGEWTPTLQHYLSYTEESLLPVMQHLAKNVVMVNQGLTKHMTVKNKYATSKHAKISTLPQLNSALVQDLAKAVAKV

PC-3 = test: In vitro proliferation assay (MTT), PC-3; type: cell-based, human; settings: value (SD, n) where given, read-out: PC-3 Prostate (IC50 µM)
Summary of the method: as §1

[1] = Homo sapiens, MDA-MB-435, MTT assay

N[C@H]1CC[C@H](Nc2nc(NC3CCN(C(=O)c4cccnc4)CC3)c3ncn(C4CCCC4)c3n2)CC1 [compound 67, trans-1-{4-[2-(4-Amino-cyclohexylamino)-9-cyclopentyl-9H-purin-6-ylamino]-piperidin-1-yl}-1-pyridin-3-yl-methanone]
IC50 (MDA-MB-435; [1]): 50 µM
IC50 (cdk4/cyclin D1): 3150 nM
IC50 (cdk2/cyclin E): 441 nM
IC50 (cdk1/cyclin B): 824 nM
IC50 (PC-3; Homo sapiens, PC-3, MTT assay): 38 µM

N[C@H]1CC[C@H](Nc2nc(NC3CCN(C(=O)c4ccncc4)CC3)c3ncn(C4CCCC4)c3n2)CC1 [compound 68, trans-1-{4-[2-(4-Amino-cyclohexylamino)-9-cyclopentyl-9H-purin-6-ylamino]-piperidin-1-yl}-1-pyridin-4-yl-methanone]
IC50 (MDA-MB-435; [1]): 21 µM
IC50 (cdk4/cyclin D1): 1440 nM
IC50 (cdk2/cyclin E): 84 nM
IC50 (cdk1/cyclin B): 136 nM
IC50 (PC-3; Homo sapiens, PC-3, MTT assay): 16 µM

N[C@H]1CC[C@H](Nc2nc(NC3CCN(C(=O)c4cc(C(F)(F)F)ccc4F)CC3)c3ncn(C4CCCC4)c3n2)CC1 [compound 69, trans-1-{4-[2-(4-Amino-cyclohexylamino)-9-cyclopentyl-9H-purin-6-ylamino]-piperidin-1-yl}-1-(2-fluoro-5-trifluoromethyl-phenyl)-methanone]
IC50 (MDA-MB-435; [1]): 0.48 µM
IC50 (cdk4/cyclin D1): 852 nM
IC50 (cdk2/cyclin E): 84 nM
IC50 (cdk1/cyclin B): 48 nM
IC50 (PC-3; Homo sapiens, PC-3, MTT assay): 0.35 µM

Cc1ccccc1C(=O)N1CCC(Nc2nc(N[C@H]3CC[C@H](N)CC3)nc3c2ncn3C2CCCC2)CC1 [compound 70, trans-1-{4-[2-(4-Amino-cyclohexylamino)-9-cyclopentyl-9H-purin-6-ylamino]-piperidin-1-yl}-1-(2-methyl-phenyl)-methanone]
IC50 (MDA-MB-435; [1]): 4.6 µM
IC50 (cdk4/cyclin D1): 4510 nM
IC50 (cdk2/cyclin E): 430 nM
IC50 (cdk1/cyclin B): 277 nM
IC50 (PC-3; Homo sapiens, PC-3, MTT assay): 4.4 µM

N[C@H]1CC[C@H](Nc2nc(NC3CCN(C(=O)c4cccc(Br)c4)CC3)c3ncn(C4CCCC4)c3n2)CC1 [compound 71, trans-1-{4-[2-(4-Amino-cyclohexylamino)-9-cyclopentyl-9H-purin-6-ylamino]-piperidin-1-yl}-1-(3-bromophenyl)-methanone]
IC50 (MDA-MB-435; [1]): 0.64 µM
IC50 (cdk4/cyclin D1): 698 nM
IC50 (cdk2/cyclin E): 91 nM
IC50 (cdk1/cyclin B): 53 nM
IC50 (PC-3; Homo sapiens, PC-3, MTT assay): 0.61 µM

N[C@H]1CC[C@H](Nc2nc(NC3CCN(C(=O)c4cccc(Cl)c4)CC3)c3ncn(C4CCCC4)c3n2)CC1 [compound 72, trans-1-{4-[2-(4-Amino-cyclohexylamino)-9-cyclopentyl-9H-purin-6-ylamino]-piperidin-1-yl}-1-(3-chloro-phenyl)-methanone]
IC50 (MDA-MB-435; MTT assay): 0.03 µM
IC50 (cdk4/cyclin D1): 864 nM
IC50 (cdk2/cyclin E): 89 nM
IC50 (cdk1/cyclin B): 51 nM
IC50 (PC-3; MTT assay): 0.03 µM

Cc1cccc(C(=O)N2CCC(Nc3nc(N[C@H]4CC[C@H](N)CC4)nc4c3ncn4C3CCCC3)CC2)c1 [compound 73, trans-1-{4-[2-(4-Amino-cyclohexylamino)-9-cyclopentyl-9H-purin-6-ylamino]-piperidin-1-yl}-1-(3-methyl-phenyl)-methanone]
IC50 (MDA-MB-435; [1]): 1.31 µM
IC50 (cdk4/cyclin D1): 410 nM
IC50 (cdk2/cyclin E): 73 nM
IC50 (cdk1/cyclin B): 100 nM
IC50 (PC-3; Homo sapiens, PC-3, MTT assay): 1.35 µM

N[C@H]1CC[C@H](Nc2nc(NC3CCN(C(=O)c4ccc(Br)cc4)CC3)c3ncn(C4CCCC4)c3n2)CC1 [compound 74, trans-1-{4-[2-(4-Amino-cyclohexylamino)-9-cyclopentyl-9H-purin-6-ylamino]-piperidin-1-yl}-1-(4-bromo-phenyl)-methanone]
IC50 (MDA-MB-435; [1]): 1.07 µM
IC50 (cdk4/cyclin D1): 560 nM
IC50 (cdk2/cyclin E): 239 nM
IC50 (cdk1/cyclin B): 62 nM
IC50 (PC-3; Homo sapiens, PC-3, MTT assay): 1.25 µM

N[C@H]1CC[C@H](Nc2nc(NC3CCN(C(=O)c4ccc(Cl)cc4)CC3)c3ncn(C4CCCC4)c3n2)CC1 [compound 75, trans-1-{4-[2-(4-Amino-cyclohexylamino)-9-cyclopentyl-9H-purin-6-ylamino]-piperidin-1-yl}-1-(4-chloro-phenyl)-methanone]
IC50 (MDA-MB-435; [1]): 1.38 µM
IC50 (cdk4/cyclin D1): 801 nM
IC50 (cdk2/cyclin E): 58 nM
IC50 (cdk1/cyclin B): 71 nM
IC50 (PC-3; Homo sapiens, PC-3, MTT assay): 1.7 µM

N[C@H]1CC[C@H](Nc2nc(NC3CCN(C(=O)c4ccc(I)cc4)CC3)c3ncn(C4CCCC4)c3n2)CC1 [compound 76, trans-1-{4-[2-(4-Amino-cyclohexylamino)-9-cyclopentyl-9H-purin-6-ylamino]-piperidin-1-yl}-1-(4-iodo-phenyl)-methanone]
IC50 (MDA-MB-435; [1]): 1.47 µM
IC50 (cdk4/cyclin D1): 787 nM
IC50 (cdk2/cyclin E): 179 nM
IC50 (cdk1/cyclin B): 57 nM
IC50 (PC-3; Homo sapiens, PC-3, MTT assay): 1.04 µM

Cc1ccc(C(=O)N2CCC(Nc3nc(N[C@H]4CC[C@H](N)CC4)nc4c3ncn4C3CCCC3)CC2)cc1 [compound 77, trans-1-{4-[2-(4-Amino-cyclohexylamino)-9-cyclopentyl-9H-purin-6-ylamino]-piperidin-1-yl}-1-(4-methyl-phenyl)-methanone]
IC50 (MDA-MB-435; [1]): 1.03 µM
IC50 (cdk4/cyclin D1): 606 nM
IC50 (cdk2/cyclin E): 71 nM
IC50 (cdk1/cyclin B): 100 nM
IC50 (PC-3; Homo sapiens, PC-3, MTT assay): 1.19 µM

N[C@H]1CC[C@H](Nc2nc(NC3CCN(C(=O)c4ccc(Cl)cc4Cl)CC3)c3ncn(C4CCCC4)c3n2)CC1 [compound 78, trans-1-{4-[2-(4-Amino-cyclohexylamino)-9-cyclopentyl-9H-purin-6-ylamino]-piperidin-1-yl}-1-(2,4-dichloro-phenyl)-methanone]
IC50 (MDA-MB-435; [1]): 1.56 µM
IC50 (cdk4/cyclin D1): 523 nM
IC50 (cdk2/cyclin E): 155 nM
IC50 (cdk1/cyclin B): 101 nM
IC50 (PC-3; Homo sapiens, PC-3, MTT assay): 1.53 µM

N[C@H]1CC[C@H](Nc2nc(NC3CCN(C(=O)c4cc(Cl)cc(Cl)c4)CC3)c3ncn(C4CCCC4)c3n2)CC1 [compound 79, trans-1-{4-[2-(4-Amino-cyclohexylamino)-9-cyclopentyl-9H-purin-6-ylamino]-piperidin-1-yl}-1-(3,5-dichloro-phenyl)-methanone]
IC50 (MDA-MB-435; [1]): 0.25 µM
IC50 (cdk4/cyclin D1): 483 nM
IC50 (cdk2/cyclin E): 73 nM
IC50 (cdk1/cyclin B): 44 nM
IC50 (PC-3; Homo sapiens, PC-3, MTT assay): 0.27 µM

CC(C)n1cnc2c(NC3CCN(C(=O)COc4ccccc4)CC3)nc(N[C@H]3CC[C@H](N)CC3)nc21 [compound 80, trans-1-{4-[2-(4-Amino-cyclohexylamino)-9-isopropyl-9H-purin-6-ylamino]-piperidin-1-yl}-2-phenoxy-ethanone dihydrochloride]
IC50 (MDA-MB-435; [1]): > 50 µM
IC50 (cdk4/cyclin D1): 8100 nM
IC50 (cdk2/cyclin E): 39 nM
IC50 (cdk1/cyclin B): 244 nM
IC50 (PC-3; Homo sapiens, PC-3, MTT assay): > 50 µM

CCOC(=O)N1CCC(Nc2nc(N[C@H]3CC[C@H](N)CC3)nc3c2ncn3C(C)C)CC1 [compound 104, trans-4-[2-(4-Amino-cyclohexylamino)-9-isopropyl-9H-purin-6-ylamino]-piperidine-1-carboxylic acid ethyl ester dihydrochloride]
IC50 (MDA-MB-435; [1]): 2.27 µM
IC50 (cdk4/cyclin D1): 8000 nM
IC50 (cdk2/cyclin E): 731 nM
IC50 (cdk1/cyclin B): 750 nM
IC50 (PC-3; Homo sapiens, PC-3, MTT assay): 1.21 µM

CC(=O)Nc1nc(C)c(S(=O)(=O)N2CCC(Nc3nc(N[C@H]4CC[C@H](N)CC4)nc4c3ncn4C3CCCC3)CC2)s1 [compound 113, trans-N-(5-{4-[2-(4-Amino-cyclohexylamino)-9-cyclopentyl-9H-purin-6-ylamino]-piperidine-1-sulfonyl}-4-methyl-thiazol-2-yl)-acetamide dihydrochloride]
IC50 (MDA-MB-435; [1]): 6.54 µM
IC50 (cdk4/cyclin D1): 39 nM
IC50 (cdk2/cyclin E): 7 nM
IC50 (cdk1/cyclin B): 18 nM
IC50 (PC-3; Homo sapiens, PC-3, MTT assay): 5.89 µM
